Test results reported in paper PMC8800111 (The Journal of Biological Chemistry, 2021).

Legend:
Format in all cases: cell-based
[1] = target: proteins of U3A human fibrosarcoma cells (4462 proteins detected) (Homo sapiens, UniProt Q86V21); settings: protein AACS, U3A cells
[2] = target: proteins of U3A human fibrosarcoma cells (4462 proteins detected) (Homo sapiens, UniProt Q15814); settings: protein TBCC; U3A cells
[3] = target: proteins of U3A human fibrosarcoma cells (4462 proteins detected) (Homo sapiens, UniProt Q96PK6); settings: protein RBM14; soluble abundance after heat, U3A cells
[4] = target: proteins of U3A human fibrosarcoma cells (4462 proteins detected) (Homo sapiens, UniProt Q15468); settings: protein STIL; U3A, 10 μM, 2 h
[5] = target: proteins of U3A human fibrosarcoma cells (4462 proteins detected) (Homo sapiens, UniProt P78316); settings: protein NOP14; U3A cells
[6] = target: proteins of U3A human fibrosarcoma cells (4462 proteins detected) (Homo sapiens, UniProt Q92888); settings: protein ARHGEF1; U3A cells
[7] = target: proteins of U3A human fibrosarcoma cells (4462 proteins detected) (Homo sapiens, UniProt Q9NVT9); settings: protein ARMC1; U3A cells
[8] = target: proteins of U3A human fibrosarcoma cells (4462 proteins detected) (Homo sapiens, UniProt Q8N5G2); settings: protein TMEM57; U3A cells
[9] = target: proteins of U3A human fibrosarcoma cells (4462 proteins detected) (Homo sapiens, UniProt O14737); settings: protein PDCD5, U3A cells
[10] = target: proteins of U3A human fibrosarcoma cells (4462 proteins detected) (Homo sapiens, UniProt Q9UJ41); settings: protein RABGEF1; U3A cells
[11] = target: proteins of U3A human fibrosarcoma cells (4462 proteins detected) (Homo sapiens, UniProt Q13627); settings: protein DYRK1A, U3A cells
[12] = target: proteins of U3A human fibrosarcoma cells (4462 proteins detected) (Homo sapiens, UniProt O43402); settings: protein EMC8; soluble abundance after heat, U3A cells
[13] = target: proteins of U3A human fibrosarcoma cells (4462 proteins detected) (Homo sapiens, UniProt P21266); settings: protein GSTM3, U3A cells
[14] = target: proteins of U3A human fibrosarcoma cells (4462 proteins detected) (Homo sapiens, UniProt P68366); settings: protein TUBA4A; U3A cells
[15] = target: proteins of U3A human fibrosarcoma cells (4462 proteins detected) (Homo sapiens, UniProt Q9Y316); settings: protein MEMO1, U3A cells
[16] = target: proteins of U3A human fibrosarcoma cells (4462 proteins detected) (Homo sapiens, UniProt Q05397); settings: protein PTK2; U3A cells
[17] = target: proteins of U3A human fibrosarcoma cells (4462 proteins detected) (Homo sapiens, UniProt Q9BZZ5); settings: protein API5; U3A cells
[18] = target: proteins of U3A human fibrosarcoma cells (4462 proteins detected) (Homo sapiens, UniProt O75674); settings: protein TOM1L1; soluble abundance after heat, U3A cells
[19] = target: proteins of U3A human fibrosarcoma cells (4462 proteins detected) (Homo sapiens, UniProt P41214); settings: protein EIF2D; U3A cells
[20] = target: proteins of U3A human fibrosarcoma cells (4462 proteins detected) (Homo sapiens, UniProt Q9BQP7); settings: protein MGME1; soluble abundance after heat, U3A cells
[21] = target: proteins of U3A human fibrosarcoma cells (4462 proteins detected) (Homo sapiens, UniProt Q9BYN8); settings: protein MRPS26; soluble abundance after heat, U3A cells
[22] = target: proteins of U3A human fibrosarcoma cells (4462 proteins detected) (Homo sapiens, UniProt Q9H4E7); settings: protein DEF6; U3A cells
[23] = target: proteins of U3A human fibrosarcoma cells (4462 proteins detected) (Homo sapiens, UniProt Q9Y221); settings: protein NIP7; soluble abundance after heat, U3A cells
[24] = target: proteins of U3A human fibrosarcoma cells (4462 proteins detected) (Homo sapiens, UniProt Q9NP77); settings: protein SSU72, U3A cells
[25] = target: proteins of U3A human fibrosarcoma cells (4462 proteins detected) (Homo sapiens, UniProt P14866); settings: protein HNRNPL; soluble abundance after heat, U3A cells
[26] = target: proteins of U3A human fibrosarcoma cells (4462 proteins detected) (Homo sapiens, UniProt Q9H8H0); settings: protein NOL11; soluble abundance after heat, U3A cells
[27] = target: proteins of U3A human fibrosarcoma cells (4462 proteins detected) (Homo sapiens, UniProt Q9BXS5); settings: protein AP1M1; U3A cells
[28] = target: proteins of U3A human fibrosarcoma cells (4462 proteins detected) (Homo sapiens, UniProt Q9NQG5); settings: protein RPRD1B; soluble abundance after heat, U3A cells
[29] = target: proteins of U3A human fibrosarcoma cells (4462 proteins detected) (Homo sapiens, UniProt Q9H9Y6); settings: protein POLR1B; soluble abundance after heat, U3A cells
[30] = target: proteins of U3A human fibrosarcoma cells (4462 proteins detected) (Homo sapiens, UniProt Q7L5Y9); settings: protein MAEA; U3A cells
Sequence of proteins of U3A human fibrosarcoma cells (4462 proteins detected) (Homo sapiens, UniProt Q7L5Y9) (Q7L5Y9 whole entry): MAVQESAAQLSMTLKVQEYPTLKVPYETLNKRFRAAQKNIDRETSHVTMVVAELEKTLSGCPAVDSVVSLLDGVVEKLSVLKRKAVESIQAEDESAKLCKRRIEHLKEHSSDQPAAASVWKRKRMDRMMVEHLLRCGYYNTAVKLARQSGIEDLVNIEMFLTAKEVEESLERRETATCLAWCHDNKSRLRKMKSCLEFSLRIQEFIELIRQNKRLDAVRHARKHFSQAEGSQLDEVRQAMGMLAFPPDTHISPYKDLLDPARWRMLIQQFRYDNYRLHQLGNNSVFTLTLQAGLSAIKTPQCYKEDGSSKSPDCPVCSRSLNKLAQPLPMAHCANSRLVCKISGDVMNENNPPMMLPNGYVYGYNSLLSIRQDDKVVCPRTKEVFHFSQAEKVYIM

Sequence of proteins of U3A human fibrosarcoma cells (4462 proteins detected) (Homo sapiens, UniProt Q15468) (Q15468 whole entry): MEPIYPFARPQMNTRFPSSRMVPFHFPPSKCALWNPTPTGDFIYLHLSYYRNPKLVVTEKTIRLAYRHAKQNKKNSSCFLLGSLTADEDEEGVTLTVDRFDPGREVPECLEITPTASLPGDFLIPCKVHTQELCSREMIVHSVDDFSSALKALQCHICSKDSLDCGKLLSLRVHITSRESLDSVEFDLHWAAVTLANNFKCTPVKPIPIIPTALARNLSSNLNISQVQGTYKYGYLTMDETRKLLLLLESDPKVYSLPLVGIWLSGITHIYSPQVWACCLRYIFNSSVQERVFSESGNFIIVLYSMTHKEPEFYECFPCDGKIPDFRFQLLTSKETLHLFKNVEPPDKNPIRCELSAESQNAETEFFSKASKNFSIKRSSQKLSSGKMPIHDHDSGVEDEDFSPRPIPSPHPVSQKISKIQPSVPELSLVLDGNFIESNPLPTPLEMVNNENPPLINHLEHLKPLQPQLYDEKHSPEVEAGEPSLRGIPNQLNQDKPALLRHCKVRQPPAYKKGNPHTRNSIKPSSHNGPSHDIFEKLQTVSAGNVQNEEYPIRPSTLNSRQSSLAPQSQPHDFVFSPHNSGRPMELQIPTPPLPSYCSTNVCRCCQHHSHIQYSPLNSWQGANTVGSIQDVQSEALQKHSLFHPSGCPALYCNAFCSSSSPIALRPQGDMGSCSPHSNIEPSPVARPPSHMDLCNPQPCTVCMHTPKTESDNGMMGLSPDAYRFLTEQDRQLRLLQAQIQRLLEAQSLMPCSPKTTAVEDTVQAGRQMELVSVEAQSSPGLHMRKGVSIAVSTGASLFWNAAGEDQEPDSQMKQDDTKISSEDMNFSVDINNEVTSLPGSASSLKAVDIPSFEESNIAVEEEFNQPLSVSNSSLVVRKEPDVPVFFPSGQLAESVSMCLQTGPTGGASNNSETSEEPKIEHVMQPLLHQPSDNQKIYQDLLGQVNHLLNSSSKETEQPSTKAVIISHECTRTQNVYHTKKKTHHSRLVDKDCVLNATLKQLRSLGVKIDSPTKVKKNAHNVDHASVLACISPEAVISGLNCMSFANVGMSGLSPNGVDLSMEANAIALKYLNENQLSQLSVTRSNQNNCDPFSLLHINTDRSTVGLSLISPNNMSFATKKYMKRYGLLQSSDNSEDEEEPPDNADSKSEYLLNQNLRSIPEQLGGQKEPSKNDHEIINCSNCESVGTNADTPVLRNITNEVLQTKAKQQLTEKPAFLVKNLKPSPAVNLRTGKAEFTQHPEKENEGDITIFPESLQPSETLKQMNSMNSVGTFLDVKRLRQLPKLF
Sequence of proteins of U3A human fibrosarcoma cells (4462 proteins detected) (Homo sapiens, UniProt O43402) (O43402 whole entry): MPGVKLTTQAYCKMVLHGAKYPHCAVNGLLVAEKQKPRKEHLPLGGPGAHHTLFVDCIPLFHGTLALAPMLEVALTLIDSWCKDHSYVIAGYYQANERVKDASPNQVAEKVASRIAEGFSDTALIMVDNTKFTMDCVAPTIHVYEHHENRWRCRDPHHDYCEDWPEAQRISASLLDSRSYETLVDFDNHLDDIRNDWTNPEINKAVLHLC
Sequence of proteins of U3A human fibrosarcoma cells (4462 proteins detected) (Homo sapiens, UniProt O75674) (O75674 whole entry): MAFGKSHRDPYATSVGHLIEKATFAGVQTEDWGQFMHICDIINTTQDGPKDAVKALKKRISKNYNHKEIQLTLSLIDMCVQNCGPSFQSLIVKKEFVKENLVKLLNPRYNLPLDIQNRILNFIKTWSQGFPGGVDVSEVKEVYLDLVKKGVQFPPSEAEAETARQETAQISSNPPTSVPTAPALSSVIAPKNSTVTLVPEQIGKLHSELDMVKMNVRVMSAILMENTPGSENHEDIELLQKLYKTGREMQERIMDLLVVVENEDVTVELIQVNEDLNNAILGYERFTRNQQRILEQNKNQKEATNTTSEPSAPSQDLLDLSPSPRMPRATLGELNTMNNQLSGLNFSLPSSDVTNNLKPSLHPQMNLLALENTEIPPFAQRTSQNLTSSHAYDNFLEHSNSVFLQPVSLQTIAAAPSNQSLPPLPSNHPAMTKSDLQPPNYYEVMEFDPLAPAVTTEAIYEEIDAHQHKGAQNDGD
Sequence of proteins of U3A human fibrosarcoma cells (4462 proteins detected) (Homo sapiens, UniProt Q9H8H0) (Q9H8H0 whole entry): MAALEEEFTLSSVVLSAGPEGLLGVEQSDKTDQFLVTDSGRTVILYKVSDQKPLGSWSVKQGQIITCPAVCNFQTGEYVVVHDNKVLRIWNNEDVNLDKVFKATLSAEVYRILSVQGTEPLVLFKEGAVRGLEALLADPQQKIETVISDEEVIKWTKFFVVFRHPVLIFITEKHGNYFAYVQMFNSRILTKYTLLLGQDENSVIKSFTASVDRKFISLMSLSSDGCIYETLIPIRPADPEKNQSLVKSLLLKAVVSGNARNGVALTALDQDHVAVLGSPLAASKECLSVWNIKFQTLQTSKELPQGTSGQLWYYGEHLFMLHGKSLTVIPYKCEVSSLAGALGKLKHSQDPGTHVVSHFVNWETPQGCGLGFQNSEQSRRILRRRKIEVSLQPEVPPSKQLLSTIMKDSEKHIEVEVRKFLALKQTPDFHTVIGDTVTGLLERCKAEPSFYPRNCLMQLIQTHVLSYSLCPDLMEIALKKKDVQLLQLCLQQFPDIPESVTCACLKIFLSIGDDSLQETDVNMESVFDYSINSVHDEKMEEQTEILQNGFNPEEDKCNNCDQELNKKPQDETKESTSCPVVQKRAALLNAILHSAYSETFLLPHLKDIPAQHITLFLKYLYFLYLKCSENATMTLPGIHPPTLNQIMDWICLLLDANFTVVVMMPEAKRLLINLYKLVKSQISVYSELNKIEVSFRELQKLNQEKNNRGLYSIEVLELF
Sequence of proteins of U3A human fibrosarcoma cells (4462 proteins detected) (Homo sapiens, UniProt Q9H4E7) (Q9H4E7 whole entry): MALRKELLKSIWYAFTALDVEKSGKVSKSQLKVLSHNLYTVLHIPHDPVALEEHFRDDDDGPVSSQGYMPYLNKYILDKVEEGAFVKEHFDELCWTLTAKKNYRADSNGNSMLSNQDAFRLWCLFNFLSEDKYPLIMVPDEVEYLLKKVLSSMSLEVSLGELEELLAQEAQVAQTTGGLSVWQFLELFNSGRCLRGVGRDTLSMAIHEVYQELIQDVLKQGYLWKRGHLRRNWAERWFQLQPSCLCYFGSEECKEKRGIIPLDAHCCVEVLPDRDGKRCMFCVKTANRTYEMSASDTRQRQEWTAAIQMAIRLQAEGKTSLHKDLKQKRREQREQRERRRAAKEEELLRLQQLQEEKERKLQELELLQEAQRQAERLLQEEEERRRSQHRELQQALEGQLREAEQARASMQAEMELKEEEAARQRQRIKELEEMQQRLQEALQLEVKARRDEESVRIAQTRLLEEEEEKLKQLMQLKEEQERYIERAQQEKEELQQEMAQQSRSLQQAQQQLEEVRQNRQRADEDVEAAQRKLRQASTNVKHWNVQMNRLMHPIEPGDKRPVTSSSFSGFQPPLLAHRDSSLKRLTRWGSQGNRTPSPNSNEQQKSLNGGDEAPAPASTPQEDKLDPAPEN
Sequence of proteins of U3A human fibrosarcoma cells (4462 proteins detected) (Homo sapiens, UniProt Q9NP77) (Q9NP77 whole entry): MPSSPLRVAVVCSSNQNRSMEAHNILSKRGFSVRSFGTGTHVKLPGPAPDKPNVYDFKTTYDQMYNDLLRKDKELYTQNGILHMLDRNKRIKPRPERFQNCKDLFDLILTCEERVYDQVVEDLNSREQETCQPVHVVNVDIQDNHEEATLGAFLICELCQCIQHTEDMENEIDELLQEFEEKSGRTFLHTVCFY
Sequence of proteins of U3A human fibrosarcoma cells (4462 proteins detected) (Homo sapiens, UniProt Q92888) (Q92888 whole entry): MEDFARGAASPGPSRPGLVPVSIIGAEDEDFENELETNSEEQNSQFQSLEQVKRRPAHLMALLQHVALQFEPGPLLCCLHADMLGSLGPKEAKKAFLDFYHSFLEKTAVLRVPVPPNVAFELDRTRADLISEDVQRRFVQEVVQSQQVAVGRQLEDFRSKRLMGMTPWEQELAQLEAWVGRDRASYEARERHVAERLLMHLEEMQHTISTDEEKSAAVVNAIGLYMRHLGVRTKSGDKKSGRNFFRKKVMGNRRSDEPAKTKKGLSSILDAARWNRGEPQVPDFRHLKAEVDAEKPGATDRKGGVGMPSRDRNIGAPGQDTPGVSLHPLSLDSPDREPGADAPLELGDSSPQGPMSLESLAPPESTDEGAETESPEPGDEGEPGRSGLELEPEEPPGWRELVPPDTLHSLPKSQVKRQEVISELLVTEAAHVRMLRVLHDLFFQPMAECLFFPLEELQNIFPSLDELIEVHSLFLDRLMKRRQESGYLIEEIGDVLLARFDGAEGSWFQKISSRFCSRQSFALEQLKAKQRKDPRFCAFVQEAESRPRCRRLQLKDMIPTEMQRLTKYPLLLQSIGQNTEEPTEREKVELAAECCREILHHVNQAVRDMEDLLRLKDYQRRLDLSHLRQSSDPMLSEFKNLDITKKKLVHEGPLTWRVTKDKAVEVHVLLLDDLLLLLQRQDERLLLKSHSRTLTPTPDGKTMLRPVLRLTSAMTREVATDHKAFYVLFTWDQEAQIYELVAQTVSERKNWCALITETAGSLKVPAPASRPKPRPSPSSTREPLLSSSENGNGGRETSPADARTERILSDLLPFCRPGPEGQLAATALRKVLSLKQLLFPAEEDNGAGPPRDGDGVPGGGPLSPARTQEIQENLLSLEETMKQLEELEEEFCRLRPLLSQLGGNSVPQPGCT
Sequence of proteins of U3A human fibrosarcoma cells (4462 proteins detected) (Homo sapiens, UniProt O14737) (O14737 whole entry): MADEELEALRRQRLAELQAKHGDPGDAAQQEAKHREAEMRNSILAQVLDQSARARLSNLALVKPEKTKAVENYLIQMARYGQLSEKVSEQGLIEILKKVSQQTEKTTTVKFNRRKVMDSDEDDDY

## CCc1nc(N)nc(N)c1-c1ccc(Cl)cc1 [pyrimethamine]
[1]
  Log2 (PYR/DMSO): -0.04
[2]
  Log2 (PYR/DMSO): 0.20
[3]
  Log2 (PYR/DMSO): 0.14
[4]
  Log2 (PYR/DMSO), STIL: 0.35
[5]
  Log2 (PYR/DMSO): 0.15
[6]
  Log2 (PYR/DMSO): 0.18
[7]
  Log2 (PYR/DMSO): 0.16
[8]
  Log2 (PYR/DMSO): 0.17
[9]
  Log2 (PYR/DMSO): -0.04
[10]
  Log2 (PYR/DMSO): 0.20
[11]
  Log2 (PYR/DMSO): -0.05
[12]
  Log2 (PYR/DMSO): 0.15
[13]
  Log2 (PYR/DMSO): -0.04
[14]
  Log2 (PYR/DMSO): 0.17
[15]
  Log2 (PYR/DMSO): -0.03
[16]
  Log2 (PYR/DMSO): 0.16
[17]
  Log2 (PYR/DMSO): 0.24
[18]
  Log2 (PYR/DMSO): 0.15
[19]
  Log2 (PYR/DMSO): 0.22
[20]
  Log2 (PYR/DMSO): 0.14
[21]
  Log2 (PYR/DMSO): 0.14
[22]
  Log2 (PYR/DMSO): 0.22
[23]
  Log2 (PYR/DMSO): 0.14
[24]
  Log2 (PYR/DMSO): -0.04
[25]
  Log2 (PYR/DMSO): 0.15
[26]
  Log2 (PYR/DMSO): 0.14
[27]
  Log2 (PYR/DMSO): 0.17
[28]
  Log2 (PYR/DMSO): 0.15
[29]
  Log2 (PYR/DMSO): 0.13
[30]
  Log2 (PYR/DMSO): 0.16
